Measurements as given in PubChem BioAssay (NCI).
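Five compound concentrations were applied to cells in 96-well plates for 48 hours; endpoints were derived by simple linear interpolation of the resulting dose-response curve. GI50 = concentration required for 50% inhibition of growth. The concentration for full growth arrest is given as TGI.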

Legend:
Assay in all cases: DTP human tumour cell line panel, 48 h
786-0 renal = system: 786-0 renal
A549 NSCLC = system: A549 NSCLC
CCRF-CEM leukemia = system: CCRF-CEM leukemia
K-562 leukemia = system: K-562 leukemia
OVCAR-8 ovarian = system: OVCAR-8 ovarian
SK-MEL-28 melanoma = system: SK-MEL-28 melanoma
SW-620 colon = system: SW-620 colon
UO-31 renal = system: UO-31 renal
MDA-MB-231 breast = system: MDA-MB-231 breast
PC-3 prostate = system: PC-3 prostate

Structure (SMILES)	TGI (786-0 renal)	TGI (A549 NSCLC)	TGI (CCRF-CEM leukemia)	TGI (K-562 leukemia)	TGI (OVCAR-8 ovarian)	TGI (SK-MEL-28 melanoma)	TGI (SW-620 colon)	TGI (UO-31 renal)	GI50 (786-0 renal)	GI50 (A549 NSCLC)	GI50 (K-562 leukemia)	GI50 (MDA-MB-231 breast)	TGI (MDA-MB-231 breast)	GI50 (OVCAR-8 ovarian)	GI50 (PC-3 prostate)	TGI (PC-3 prostate)	GI50 (SK-MEL-28 melanoma)	GI50 (SW-620 colon)	GI50 (UO-31 renal)	GI50 (CCRF-CEM leukemia)
O=C(Nc1nc2ccc([N+](=O)[O-])cc2s1)C(=O)C(C1OC(=O)c2ccccc21)[N+](=O)[O-] (stereo not drawn)	> 100 µM	> 100 µM	> 100 µM	> 100 µM	> 100 µM	> 100 µM	> 100 µM	94.4 µM												
C1=C2/CC[C@H](Sc3ccccc3)C2C2(CCCCC/1)OCCO2 (stereo partly drawn)	> 100 µM		> 100 µM	> 100 µM	> 100 µM	> 100 µM	> 100 µM													
COC([CH2][Hg][n]1cnc2c1c(=O)n(C)c(=O)n2C)CN1C(=O)c2ccccc2S1(=O)=O (stereo not drawn)	> 100 µM	> 100 µM		> 100 µM	> 100 µM	> 100 µM	> 100 µM	> 100 µM	> 100000 nM	> 100000 nM	> 100000 nM	> 100000 nM	> 100 µM	> 100000 nM	> 100000 nM	> 100 µM	> 100000 nM	> 100000 nM	> 100000 nM	
O=C(O)CCC(NC(=O)c1ccc(Nc2nc3ccccc3nc2-c2cccs2)cc1)C(=O)O (stereo not drawn)	> 100 µM	> 100 µM	> 100 µM	> 100 µM	> 100 µM	> 100 µM	> 100 µM	> 100 µM												
CCC[CH2][Sn]([CH2]CCC)([S]c1cccc2cccnc12)[S]c1cccc2cccnc12	0.56 µM	1.34 µM	0.285 µM	0.611 µM	1.16 µM	0.472 µM	0.379 µM	0.345 µM	227 nM	348 nM	64.2 nM			283 nM			160 nM	132 nM	189 nM	35 nM
CCn1c(C)nn2c(=O)c3ccccc3nc2c1=O	> 100 µM	> 100 µM	> 100 µM	> 100 µM	> 100 µM	> 100 µM	> 100 µM													
Nc1ccccc1S(=O)(=O)N(CC(=O)O)c1ccccc1	> 100 µM	> 100 µM	> 100 µM	> 100 µM	> 100 µM	> 100 µM	> 100 µM	> 100 µM												
Cc1cc(NS(=O)(=O)c2ccc(Nc3c4ccccc4nc4c(C(=O)N5CCN(CCOS(C)(=O)=O)CC5)cccc34)cc2)no1	> 100 µM	> 100 µM	> 100 µM	> 100 µM	> 100 µM	> 100 µM		> 100 µM												
COC1/C=C/OC2(C)Oc3c(C)c(O)c4c(O)c(c(/C=N/Nc5ccc([N+](=O)[O-])cc5[N+](=O)[O-])c(O)c4c3C2=O)NC(=O)C(C)=C/C=C/C(C)C(O)C(C)C(O)C(C)C(OC(C)=O)C1C (stereo not drawn)	7.02 µM	17.3 µM	> 50 µM		3.93 µM	5.23 µM	2.96 µM	23.6 µM	1670 nM	8010 nM		1320 nM	4.01 µM	1410 nM	1340 nM	3.92 µM	1450 nM	1190 nM	8710 nM	1550 nM
Cc1nc2c(ccc3ncccc32)[nH]1	> 100 µM	> 100 µM	> 100 µM	> 100 µM	> 100 µM	> 100 µM	> 100 µM	> 100 µM												
COC(=O)/C(C#N)=C1\NC(=O)c2ccccc21	> 100 µM	> 100 µM	> 100 µM	> 100 µM	> 100 µM	> 100 µM	> 100 µM	> 100 µM												
Cc1c(C(=O)C/C(=N/NC(=O)c2ccccc2O)C(=O)Nc2ccccc2C(C)C)[n+](=O)c2ccccc2n1[O-]	> 100 µM	> 100 µM	28.8 µM	> 100 µM	> 100 µM	> 100 µM	> 100 µM													
Cc1cc(N(CCC#N)CCC#N)ccc1N=Nc1ccc(S(N)(=O)=O)cc1	> 100 µM	> 100 µM	> 100 µM	> 100 µM	> 100 µM	> 100 µM	> 100 µM	> 100 µM												
COC(=O)c1ccccc1NC(=O)C(=O)Cc1nc2c3c(ccc2[nH]c1=O)C(=O)c1ccccc1C3=O	74.2 µM	62.1 µM	> 100 µM	> 100 µM	> 100 µM	> 100 µM	55.7 µM	> 100 µM												
CC1(C(=O)O)CCC[C@@]2(C)C1CC[C@@]1(C)c3cocc3CCC21 (stereo partly drawn)	> 100 µM	> 100 µM	> 100 µM	> 100 µM	> 100 µM	> 100 µM	> 100 µM	> 100 µM												
COC(=O)CC[N+]1=CCC(c2ccccc2)(c2ccccc2)O1	> 100 µM	> 100 µM		> 100 µM	> 100 µM	> 100 µM	> 100 µM	> 100 µM					> 100 µM			> 100 µM				
CC1(C)C(=O)/C=C\C(=O)C(C)(C)C2=CC=C(O2)C(C)(C)C(=O)/C=C\C(=O)C(C)(C)C2=CC=C1O2	> 100 µM	> 100 µM	> 100 µM	> 100 µM	> 100 µM	> 100 µM	> 100 µM													
C=CCO[C@H]1CO[C@H]2[C@@H]1OC[C@@H]2Oc1ccc(Nc2ccnc(Nc3ccc(O[C@H]4CO[C@H]5[C@@H]4OC[C@@H]5OCC=C)c(Cl)c3)n2)cc1Cl	3.37 µM	3.95 µM	3.43 µM	1.9 µM	5.92 µM	3.16 µM	3.29 µM	2.93 µM	1870 nM	1840 nM	378 nM	1690 nM	3.23 µM	1930 nM			1730 nM	1770 nM	1580 nM	652 nM
CCOC(=O)CCC1(C(=O)OCC)CCCCC1=O (stereo not drawn)	> 100 µM	> 100 µM	> 100 µM	> 100 µM	> 100 µM	> 100 µM	> 100 µM	> 100 µM												
CO/C(=N\N=C\c1ccc(C(F)(F)F)cc1)c1ccncc1	> 10 µM	> 10 µM	> 10 µM	> 10 µM	> 10 µM		> 10 µM	> 10 µM					> 10 µM			> 10 µM				
COC(CCC[N+](C)(C)C)CC[N+](C)(C)C (stereo not drawn)	> 100 µM	> 100 µM	> 100 µM	> 100 µM	> 100 µM	> 100 µM	> 100 µM	> 100 µM								> 100 µM				
